# Measured values published in PubChem BioAssay AID1963965 (Molecular Pharmacology Branch, DTP, NCI, 2024).
# Test system: 996289-038-R-J1-PDC spheroid viability
# Assay: Anticancer human tumor 996289-038-R-J1-PDC patient-derived colon adenocarcinoma cell line growth inhibition [PI3K]
# Conditions: spheroids with HUVEC and MSC; for IC50: curve of first compound; for viability, T/C: stronger effect = lower value
# In short: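 Viability of mixed-cell spheroids was determined after exposure to pairwise combinations, one partner being inavolisib, alpelisib, duvelisib or copanlisib. Highest tested concentration matched clinical Cmax where known and 10 microM where not, descending in half-log steps.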
# [1] = second compound 0.00316 µM, first compound 0.0316 µM
# [2] = second compound 0.00316 µM, first compound 0.1 µM
# [3] = second compound 0.00316 µM, first compound 0.316 µM
# [4] = second compound 0.00316 µM, first compound 1 µM
# [5] = second compound 0.01 µM, first compound 0.0316 µM
# [6] = second compound 0.01 µM, first compound 0.1 µM
# [7] = second compound 0.01 µM, first compound 0.316 µM
# [8] = second compound 0.01 µM, first compound 1 µM
# [9] = second compound 0.0316 µM, first compound 0.0316 µM
# [10] = second compound 0.0316 µM, first compound 0.1 µM
# [11] = second compound 0.0316 µM, first compound 0.316 µM
# [12] = second compound 0.0316 µM, first compound 1 µM
# [13] = second compound 0.1 µM, first compound 0.0316 µM
# [14] = second compound 0.1 µM, first compound 0.1 µM
# [15] = second compound 0.1 µM, first compound 0.316 µM
# [16] = second compound 0.1 µM, first compound 1 µM
# [17] = second compound 0.316 µM, first compound 0.0316 µM
# [18] = second compound 0.316 µM, first compound 0.1 µM
# [19] = second compound 0.316 µM, first compound 0.316 µM
# [20] = second compound 0.316 µM, first compound 1 µM
# [21] = second compound 1 µM, first compound 0.0316 µM
# [22] = second compound 1 µM, first compound 0.1 µM
# [23] = second compound 1 µM, first compound 0.316 µM
# [24] = second compound 1 µM, first compound 1 µM
# 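Further: spheroids exposed to compounds for seven days before viability read.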
# 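Wherever viability, T/C is given: luminescence used as a proxy for viable cell amount; percent viability relative to DMSO vehicle control as 100%.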
smiles,measurement,setting,value
CC(C)NCC(C(=O)N1CCN(c2ncnc3c2C(C)CC3O)CC1)c1ccc(Cl)cc1 (centres undefined) + CC(Nc1ccc2c(c1)OCCn1cc(N3C(=O)OCC3C(F)F)nc1-2)C(N)=O,IC50,second compound 0.00316 µM,> 10000 nM
same,IC50,second compound 0.01 µM,> 10000 nM
same,IC50,second compound 0.0316 µM,> 10000 nM
same,IC50,second compound 0.1 µM,> 10000 nM
same,IC50,second compound 0.316 µM,> 10000 nM
same,IC50,second compound 1 µM,> 10000 nM
same,"viability, T/C",[1],86%
same,"viability, T/C",[2],95.3%
same,"viability, T/C",[3],98.6%
same,"viability, T/C",[4],98.1%
same,"viability, T/C","second compound 0.00316 µM, first compound 3.16 µM",85.3%
same,"viability, T/C","second compound 0.00316 µM, first compound 10 µM",66.8%
same,"viability, T/C",[5],87.2%
same,"viability, T/C",[6],88%
same,"viability, T/C",[7],91.6%
same,"viability, T/C",[8],91.8%
same,"viability, T/C","second compound 0.01 µM, first compound 3.16 µM",82.1%
same,"viability, T/C","second compound 0.01 µM, first compound 10 µM",54.7%
same,"viability, T/C",[9],105%
same,"viability, T/C",[10],91.6%
same,"viability, T/C",[11],88.7%
same,"viability, T/C",[12],88.4%
same,"viability, T/C","second compound 0.0316 µM, first compound 3.16 µM",78.5%
same,"viability, T/C","second compound 0.0316 µM, first compound 10 µM",53.6%
same,"viability, T/C",[13],79.8%
same,"viability, T/C",[14],71.1%
same,"viability, T/C",[15],76%
same,"viability, T/C",[16],80%
same,"viability, T/C","second compound 0.1 µM, first compound 3.16 µM",62%
same,"viability, T/C","second compound 0.1 µM, first compound 10 µM",67.5%
same,"viability, T/C",[17],57.9%
same,"viability, T/C",[18],81.2%
same,"viability, T/C",[19],64.3%
same,"viability, T/C",[20],65%
same,"viability, T/C","second compound 0.316 µM, first compound 3.16 µM",73.7%
same,"viability, T/C","second compound 0.316 µM, first compound 10 µM",46%
same,"viability, T/C",[21],64.9%
same,"viability, T/C",[22],57.1%
same,"viability, T/C",[23],53.5%
same,"viability, T/C",[24],55.3%
same,"viability, T/C","second compound 1 µM, first compound 3.16 µM",52.5%
same,"viability, T/C","second compound 1 µM, first compound 10 µM",53.5%
CCN1CCN(Cc2ccc(Nc3ncc(F)c(-c4cc(F)c5nc(C)n(C(C)C)c5c4)n3)nc2)CC1 + CC(Nc1ccc2c(c1)OCCn1cc(N3C(=O)OCC3C(F)F)nc1-2)C(N)=O,IC50,second compound 0.00316 µM,> 1000 nM
same,IC50,second compound 0.01 µM,> 1000 nM
same,IC50,second compound 0.0316 µM,> 1000 nM
same,IC50,second compound 0.1 µM,> 1000 nM
same,IC50,second compound 0.316 µM,772 nM
same,IC50,second compound 1 µM,53.8 nM
same,"viability, T/C","second compound 0.00316 µM, first compound 0.00316 µM",97.1%
same,"viability, T/C","second compound 0.00316 µM, first compound 0.01 µM",93.1%
same,"viability, T/C",[1],93.2%
same,"viability, T/C",[2],84.8%
same,"viability, T/C",[3],76.9%
same,"viability, T/C",[4],78.3%
same,"viability, T/C","second compound 0.01 µM, first compound 0.00316 µM",98.5%
same,"viability, T/C","second compound 0.01 µM, first compound 0.01 µM",98.9%
same,"viability, T/C",[5],83.2%
same,"viability, T/C",[6],75.8%
same,"viability, T/C",[7],82.9%
same,"viability, T/C",[8],82.8%
same,"viability, T/C","second compound 0.0316 µM, first compound 0.00316 µM",94.9%
same,"viability, T/C","second compound 0.0316 µM, first compound 0.01 µM",83.2%
same,"viability, T/C",[9],78.9%
same,"viability, T/C",[10],69.8%
same,"viability, T/C",[11],79.8%
same,"viability, T/C",[12],67.5%
same,"viability, T/C","second compound 0.1 µM, first compound 0.00316 µM",78.6%
same,"viability, T/C","second compound 0.1 µM, first compound 0.01 µM",75.1%
same,"viability, T/C",[13],74.7%
same,"viability, T/C",[14],66.1%
same,"viability, T/C",[15],61.3%
same,"viability, T/C",[16],65.8%
same,"viability, T/C","second compound 0.316 µM, first compound 0.00316 µM",71.3%
same,"viability, T/C","second compound 0.316 µM, first compound 0.01 µM",73.9%
same,"viability, T/C",[17],64.3%
same,"viability, T/C",[18],54.7%
same,"viability, T/C",[19],57.3%
same,"viability, T/C",[20],48.4%
same,"viability, T/C","second compound 1 µM, first compound 0.00316 µM",53.7%
same,"viability, T/C","second compound 1 µM, first compound 0.01 µM",53.2%
same,"viability, T/C",[21],52.6%
same,"viability, T/C",[22],47.4%
same,"viability, T/C",[23],46.4%
same,"viability, T/C",[24],45%
